In patent US8658655B2, “Inhibition of activated cdc42-associated kinase 1” (Fox Chase Cancer Center, priority 2011, dated 2014):
“Also recorded” adds a separate entry of the source. Blank lines part the entries; values can stand above or below the compound they belong to.

Columns and labels:
Aurora B = Aurora B (Homo sapiens, UniProt Q96GD4); experiment: Kinase panel screen at 500 nM: Aurora B; assay type: biochemical; conditions: 500 nM compound, 10 μM ATP
Text: (§1) Disparate replicates were eliminated from the analysis.

[1] = molecular target: non-receptor tyrosine kinase BRK (Homo sapiens, UniProt Q13882); experiment: Kinase panel screen at 500 nM: BRK; assay type: biochemical; conditions: 500 nM compound, 10 μM ATP
Chain of non-receptor tyrosine kinase BRK (Q13882 whole entry): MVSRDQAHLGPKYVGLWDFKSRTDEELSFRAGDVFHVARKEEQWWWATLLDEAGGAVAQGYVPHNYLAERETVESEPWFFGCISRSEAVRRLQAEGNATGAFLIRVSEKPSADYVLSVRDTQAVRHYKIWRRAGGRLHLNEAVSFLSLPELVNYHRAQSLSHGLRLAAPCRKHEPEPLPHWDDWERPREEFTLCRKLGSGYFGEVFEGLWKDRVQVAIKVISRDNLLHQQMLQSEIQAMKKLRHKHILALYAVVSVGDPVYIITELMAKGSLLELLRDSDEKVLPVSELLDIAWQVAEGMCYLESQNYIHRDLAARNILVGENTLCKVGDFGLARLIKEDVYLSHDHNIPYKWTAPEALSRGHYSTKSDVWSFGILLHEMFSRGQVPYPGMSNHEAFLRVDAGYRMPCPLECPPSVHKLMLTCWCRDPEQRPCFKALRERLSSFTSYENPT
Text: as §1

Ack1 [2] = molecular target: T1, Ack1 (Homo sapiens, UniProt Q07912); experiment: Ack1 dose-response radiometric peptide kinase assay; assay type: biochemical
Experimental: 40 ng of recombinant Ack1 was incubated with saturating quantities of peptide substrate ([…] (SEQ ID NO:1) and in the presence of a compound in Ack1 kinase buffer (20 mM Tris pH 7.4, 10 mM MgCl2, 0.1 mM NaVO4, 0.5 mM dithiothreitol). [^32P]-γ-ATP was added in a total concentration of 10 μM ATP to initiate the reaction. Following 30 minute incubation at 30° C., phosphorylated peptide substrate was captured by spotting the reaction on P81 cationic filter paper and unincorporated [^32P]-γ-ATP was removed by washing in a solution of phosphoric acid. Phosphorylated peptide was then quantified by autoradiography or by Phosphorlmager analysis or by scintillation counting.
(§2) Thus, this Example proposed derivatives of compound 1 that inhibit Ack1 in the cellular context while retaining its target specificity.
Target sequence in this assay (Q07912 whole entry): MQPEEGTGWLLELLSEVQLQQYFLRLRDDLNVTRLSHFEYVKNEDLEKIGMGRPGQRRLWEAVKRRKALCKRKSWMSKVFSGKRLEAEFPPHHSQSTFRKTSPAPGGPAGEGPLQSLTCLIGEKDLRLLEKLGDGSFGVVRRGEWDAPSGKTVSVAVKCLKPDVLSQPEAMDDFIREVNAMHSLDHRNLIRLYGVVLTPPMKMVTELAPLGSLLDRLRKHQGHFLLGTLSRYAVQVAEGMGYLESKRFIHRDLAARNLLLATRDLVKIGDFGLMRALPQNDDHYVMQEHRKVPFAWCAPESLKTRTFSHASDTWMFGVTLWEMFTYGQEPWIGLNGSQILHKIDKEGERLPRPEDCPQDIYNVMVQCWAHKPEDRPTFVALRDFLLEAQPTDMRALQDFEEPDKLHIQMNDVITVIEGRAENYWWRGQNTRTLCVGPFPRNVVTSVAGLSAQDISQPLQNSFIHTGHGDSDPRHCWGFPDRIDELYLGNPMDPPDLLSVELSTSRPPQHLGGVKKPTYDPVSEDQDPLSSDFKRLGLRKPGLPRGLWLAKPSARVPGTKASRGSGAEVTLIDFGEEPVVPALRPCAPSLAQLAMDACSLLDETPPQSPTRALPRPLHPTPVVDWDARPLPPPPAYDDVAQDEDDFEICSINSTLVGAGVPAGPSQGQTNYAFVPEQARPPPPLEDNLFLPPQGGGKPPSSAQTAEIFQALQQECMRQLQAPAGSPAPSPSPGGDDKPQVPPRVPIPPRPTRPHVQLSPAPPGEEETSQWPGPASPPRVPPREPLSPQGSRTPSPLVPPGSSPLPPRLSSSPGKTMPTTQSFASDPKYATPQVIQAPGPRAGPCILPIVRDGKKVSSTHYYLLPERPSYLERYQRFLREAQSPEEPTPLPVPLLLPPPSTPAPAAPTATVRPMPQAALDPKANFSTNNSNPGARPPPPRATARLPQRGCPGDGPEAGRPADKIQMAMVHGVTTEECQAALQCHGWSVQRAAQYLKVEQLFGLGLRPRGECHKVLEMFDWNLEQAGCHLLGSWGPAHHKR

[3] = system: Ack1 autophosphorylation (Tyr284); experiment: Ack1 autophosphorylation in HEK293 cells (Western blot phospho-Ack1); assay type: cell-based; conditions: HEK293 cells expressing Ack1
Text: as §2

[4] = system: panel of 300 protein kinases; experiment: Kinase selectivity across panel of 300 kinases (Gini coefficient); assay type: biochemical, human; conditions: 500 nM
Experimental: as §1
The data were analyzed for compounds that inhibit Ack1. […] Inhibitor selectivity was quantitatively assessed using the Gini coefficient (Piotr P et al. (2007) J. Med. Chem., 50:5773-9; and, Lynette A et al. (2009) J. Chem. Biol. 2:131-51).

Aurora [5] = conditions: Heron et al. 2006; cited from earlier work
Aurora [6] = conditions: Heron et al. 2006; cited from earlier work; remark: listed apart in the source
Ack1 [7] = molecular target: T1, Ack1; experiment: Kinase panel screen at 500 nM: Ack1; assay type: biochemical; set-up: only the kinase domain of Ack1 and a limited additional region C-terminal (amino acids 110-476); conditions: 500 nM compound, 10 μM ATP; for inhibition at 0.5 µM: duplicate, read-out: inhibition of Ack1 catalytic activity
Target sequence in this assay (Q07912 110-476): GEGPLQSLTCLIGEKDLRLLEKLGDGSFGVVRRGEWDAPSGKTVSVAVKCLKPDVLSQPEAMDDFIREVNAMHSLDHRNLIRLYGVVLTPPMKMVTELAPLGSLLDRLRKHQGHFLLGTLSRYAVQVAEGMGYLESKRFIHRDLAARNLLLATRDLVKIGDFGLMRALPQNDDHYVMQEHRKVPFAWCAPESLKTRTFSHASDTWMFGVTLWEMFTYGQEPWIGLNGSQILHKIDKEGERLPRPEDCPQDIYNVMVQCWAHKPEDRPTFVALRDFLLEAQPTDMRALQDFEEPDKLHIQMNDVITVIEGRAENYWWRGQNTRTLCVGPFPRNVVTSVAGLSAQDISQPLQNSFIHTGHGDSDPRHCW
Experimental: Each inhibitor was tested in duplicate at 500 nM against each kinase using radiolabeled ATP (10 μM total ATP) and a peptide or protein substrate.

IKK-2 = molecular target: T2, IKK-2 (Homo sapiens, UniProt O14920); experiment: Kinase panel screen at 500 nM: IKK-2; assay type: biochemical; conditions: 500 nM compound, 10 μM ATP
T2 sequence (O14920 1-756): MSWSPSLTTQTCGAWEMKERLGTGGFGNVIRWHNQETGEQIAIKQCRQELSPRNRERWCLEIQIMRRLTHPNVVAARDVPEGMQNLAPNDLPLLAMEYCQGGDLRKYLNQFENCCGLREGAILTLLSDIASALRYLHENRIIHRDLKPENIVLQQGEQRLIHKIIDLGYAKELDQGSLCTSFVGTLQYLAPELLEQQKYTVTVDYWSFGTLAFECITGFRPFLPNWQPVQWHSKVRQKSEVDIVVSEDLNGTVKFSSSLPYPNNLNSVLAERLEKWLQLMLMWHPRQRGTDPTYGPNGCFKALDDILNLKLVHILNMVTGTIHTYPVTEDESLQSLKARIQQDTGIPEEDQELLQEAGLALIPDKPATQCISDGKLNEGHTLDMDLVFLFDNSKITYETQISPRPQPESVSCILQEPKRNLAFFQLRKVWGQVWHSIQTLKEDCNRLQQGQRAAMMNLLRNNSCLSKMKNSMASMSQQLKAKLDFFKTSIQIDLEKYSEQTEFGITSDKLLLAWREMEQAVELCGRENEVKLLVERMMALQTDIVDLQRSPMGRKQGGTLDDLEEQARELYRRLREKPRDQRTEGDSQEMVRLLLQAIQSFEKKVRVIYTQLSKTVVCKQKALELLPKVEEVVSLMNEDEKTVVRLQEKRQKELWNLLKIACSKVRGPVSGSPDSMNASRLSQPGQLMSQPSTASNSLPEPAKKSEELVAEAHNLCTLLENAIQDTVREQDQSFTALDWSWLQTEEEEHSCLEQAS
Text: (§3) To directly test the kinase selectivity of a large number of established kinase inhibitors, high throughput kinase assays were employed against a panel of ^˜300 recombinant human protein kinases. An economical method based on conventional filter-binding assays was used at a nanoliter scale using radiolabeled ATP that directly measures kinase catalytic activity toward a polypeptide and/or protein substrate. […] The library of inhibitors comprises 160 pure compounds known to inhibit kinases representing all major protein kinase families, as well as a limited number of compounds that were not developed to target protein kinases (FIG. 1A).
(§4) The kinase panel tested represents all major human protein kinase. For simplicity, all compounds were tested at a concentration of 0.5 μM in the presence of 10 μM ATP.
(§5) Each kinase-inhibitor pair was tested in duplicate and results were expressed as percent remaining kinase activity compared to solvent (DMSO) control reactions. Disparate replicates were eliminated from the analysis.
(§6) As described above, a large-scale parallel screening of a collection of 160 known kinase inhibitors was conducted against a panel of 294-300 recombinant human protein kinases. Goals included the identification of novel inhibitor scaffolds for new kinase targets and the revelation of the target specificities of this panel of research compounds. […]

FLT3 = molecular target: T3, FLT3 (Homo sapiens, UniProt P36888); experiment: Kinase panel screen at 500 nM: FLT3; assay type: biochemical; conditions: 500 nM compound, 10 μM ATP
T3 sequence (P36888 27-993): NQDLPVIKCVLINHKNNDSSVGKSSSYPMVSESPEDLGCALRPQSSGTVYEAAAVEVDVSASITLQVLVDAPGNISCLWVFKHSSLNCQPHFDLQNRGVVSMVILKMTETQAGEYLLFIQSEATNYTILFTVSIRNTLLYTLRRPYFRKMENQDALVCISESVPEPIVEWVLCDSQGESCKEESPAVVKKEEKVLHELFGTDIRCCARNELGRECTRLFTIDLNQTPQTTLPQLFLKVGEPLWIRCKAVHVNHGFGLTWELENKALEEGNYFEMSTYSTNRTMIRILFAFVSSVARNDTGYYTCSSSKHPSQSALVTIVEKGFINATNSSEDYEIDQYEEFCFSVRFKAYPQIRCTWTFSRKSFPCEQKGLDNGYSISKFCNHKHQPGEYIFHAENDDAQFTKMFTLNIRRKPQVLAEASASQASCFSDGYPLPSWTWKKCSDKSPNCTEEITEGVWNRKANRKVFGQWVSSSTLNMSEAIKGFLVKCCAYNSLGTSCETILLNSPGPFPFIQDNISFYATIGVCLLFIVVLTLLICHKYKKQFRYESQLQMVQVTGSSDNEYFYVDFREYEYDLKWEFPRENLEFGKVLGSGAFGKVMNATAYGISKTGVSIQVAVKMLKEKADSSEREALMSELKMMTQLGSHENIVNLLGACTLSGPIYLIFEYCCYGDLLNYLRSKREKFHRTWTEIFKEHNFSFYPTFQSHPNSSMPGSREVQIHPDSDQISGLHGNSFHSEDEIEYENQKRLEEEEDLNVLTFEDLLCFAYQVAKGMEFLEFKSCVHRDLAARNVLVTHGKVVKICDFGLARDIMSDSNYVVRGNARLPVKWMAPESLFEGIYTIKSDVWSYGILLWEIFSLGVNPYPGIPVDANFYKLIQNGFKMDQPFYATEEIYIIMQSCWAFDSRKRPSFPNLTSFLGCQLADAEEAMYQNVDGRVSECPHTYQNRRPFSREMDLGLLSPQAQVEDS
Text: as §1

JAK1/2 = experiment: Kinase panel screen at 500 nM: JAK1/2; assay type: biochemical, human; conditions: 500 nM compound, 10 μM ATP
Text: as §3, §4, §5, §6

RET = RET (Homo sapiens, UniProt P07949); experiment: Kinase panel screen at 500 nM: RET; assay type: biochemical; conditions: 500 nM compound, 10 μM ATP
Chain of RET (P07949 29-1114): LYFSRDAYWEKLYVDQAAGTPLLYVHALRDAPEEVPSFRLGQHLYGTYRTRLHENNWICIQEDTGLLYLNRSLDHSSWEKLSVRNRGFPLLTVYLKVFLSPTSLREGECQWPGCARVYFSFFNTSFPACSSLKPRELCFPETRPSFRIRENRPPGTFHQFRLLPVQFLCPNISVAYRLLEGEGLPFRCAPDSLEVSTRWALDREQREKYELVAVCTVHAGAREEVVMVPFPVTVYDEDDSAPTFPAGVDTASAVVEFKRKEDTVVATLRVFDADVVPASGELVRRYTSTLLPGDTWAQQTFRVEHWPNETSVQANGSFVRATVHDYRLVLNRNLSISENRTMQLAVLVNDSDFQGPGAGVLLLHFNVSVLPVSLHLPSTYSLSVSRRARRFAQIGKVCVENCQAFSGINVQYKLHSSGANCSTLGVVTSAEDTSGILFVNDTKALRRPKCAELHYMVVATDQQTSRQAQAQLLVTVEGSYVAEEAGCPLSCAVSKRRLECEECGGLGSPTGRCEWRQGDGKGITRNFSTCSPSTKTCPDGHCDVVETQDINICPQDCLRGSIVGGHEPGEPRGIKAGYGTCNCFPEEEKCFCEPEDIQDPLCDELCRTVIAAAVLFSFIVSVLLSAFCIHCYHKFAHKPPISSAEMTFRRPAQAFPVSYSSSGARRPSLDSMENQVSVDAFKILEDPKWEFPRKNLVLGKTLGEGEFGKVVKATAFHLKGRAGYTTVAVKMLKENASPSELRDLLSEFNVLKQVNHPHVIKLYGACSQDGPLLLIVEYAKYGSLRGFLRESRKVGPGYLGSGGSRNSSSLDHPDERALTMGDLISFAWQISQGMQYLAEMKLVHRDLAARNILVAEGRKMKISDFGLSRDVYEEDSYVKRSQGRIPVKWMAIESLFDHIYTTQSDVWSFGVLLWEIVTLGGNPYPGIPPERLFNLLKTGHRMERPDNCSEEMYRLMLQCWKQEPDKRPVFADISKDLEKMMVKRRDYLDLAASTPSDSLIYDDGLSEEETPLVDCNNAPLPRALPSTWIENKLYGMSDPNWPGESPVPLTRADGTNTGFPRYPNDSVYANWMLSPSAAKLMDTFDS
Text: as §1

Tyk2 = Tyk2 (Homo sapiens, UniProt P29597); experiment: Kinase panel screen at 500 nM: Tyk2; assay type: biochemical; conditions: 500 nM compound, 10 μM ATP
Chain of Tyk2 (P29597 whole entry): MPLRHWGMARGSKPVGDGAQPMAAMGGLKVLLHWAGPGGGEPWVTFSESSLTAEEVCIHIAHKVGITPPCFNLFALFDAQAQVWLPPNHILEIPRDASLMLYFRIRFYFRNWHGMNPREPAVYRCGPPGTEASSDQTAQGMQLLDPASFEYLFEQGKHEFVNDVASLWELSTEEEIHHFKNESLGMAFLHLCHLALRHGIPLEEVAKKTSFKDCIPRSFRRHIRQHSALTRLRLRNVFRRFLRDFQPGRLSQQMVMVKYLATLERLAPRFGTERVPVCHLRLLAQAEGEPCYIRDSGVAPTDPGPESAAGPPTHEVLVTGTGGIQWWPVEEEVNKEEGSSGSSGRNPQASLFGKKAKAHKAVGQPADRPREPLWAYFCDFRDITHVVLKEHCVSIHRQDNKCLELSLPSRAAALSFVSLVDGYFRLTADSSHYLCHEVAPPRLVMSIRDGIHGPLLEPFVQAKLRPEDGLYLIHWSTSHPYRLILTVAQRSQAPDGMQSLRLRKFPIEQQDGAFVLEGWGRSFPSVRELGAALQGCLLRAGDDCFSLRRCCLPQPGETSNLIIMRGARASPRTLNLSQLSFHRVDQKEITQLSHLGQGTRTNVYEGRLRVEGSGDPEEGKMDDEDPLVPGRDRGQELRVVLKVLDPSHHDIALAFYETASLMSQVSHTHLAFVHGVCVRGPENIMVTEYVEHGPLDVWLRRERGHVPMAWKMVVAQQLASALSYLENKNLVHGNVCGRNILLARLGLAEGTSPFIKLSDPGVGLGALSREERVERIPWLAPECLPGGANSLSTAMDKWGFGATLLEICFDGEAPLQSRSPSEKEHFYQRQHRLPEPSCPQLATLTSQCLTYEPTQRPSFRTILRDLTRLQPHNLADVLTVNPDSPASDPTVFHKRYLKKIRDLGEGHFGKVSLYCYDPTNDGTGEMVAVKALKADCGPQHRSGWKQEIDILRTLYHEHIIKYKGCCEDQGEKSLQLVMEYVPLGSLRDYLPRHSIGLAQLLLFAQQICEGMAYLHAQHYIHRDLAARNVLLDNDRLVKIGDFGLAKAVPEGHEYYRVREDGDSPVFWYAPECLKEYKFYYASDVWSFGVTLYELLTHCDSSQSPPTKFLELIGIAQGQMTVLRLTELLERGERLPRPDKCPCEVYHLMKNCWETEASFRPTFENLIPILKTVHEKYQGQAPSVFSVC
Text: as §1

Chain of Aurora B (Q96GD4 whole entry): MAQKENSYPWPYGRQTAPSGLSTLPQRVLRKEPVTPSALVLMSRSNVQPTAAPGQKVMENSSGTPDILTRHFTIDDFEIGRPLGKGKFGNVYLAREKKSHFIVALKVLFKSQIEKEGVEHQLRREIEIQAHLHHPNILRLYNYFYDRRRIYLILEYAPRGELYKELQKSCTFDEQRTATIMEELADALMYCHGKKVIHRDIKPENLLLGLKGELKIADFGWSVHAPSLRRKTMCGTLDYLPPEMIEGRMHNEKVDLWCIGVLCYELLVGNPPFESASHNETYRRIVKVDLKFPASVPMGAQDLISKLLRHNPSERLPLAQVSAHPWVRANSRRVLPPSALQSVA

- inhibition at 0.5 µM (Aurora B): 75%
- inhibition at 0.5 µM [1]: > 50%
- IC50 (Ack1 [2]; dose-response, 10 μM ATP, read-out: IC50 against Ack1 in vitro): 5 nM
- kinase selectivity for Ack1 over other kinases [4]: unusually selective
- inhibition at 0.5 µM (Ack1 [7]): 95%
Compound: COc1cc2ncnc(Nc3ccc(NC(=O)c4ccccc4)cc3)c2cc1OC [Compound 1]
- inhibition of Ack1 autophosphorylation in cells [3]: did not reduce Ack1 autophosphorylation
- cellular efficacy against Aurora (Aurora [5]): poor cellular efficacy
- in vitro activity against Aurora (Aurora [6]): good in vitro activity

Compound: COc1cc2c(Nc3ccc(NC(=O)c4ccccc4)cc3)ncnc2cc1OCCCN1CCOCC1 [Compound 1.1]
- in vitro Ack1 activity compared to compound 1 (Ack1 [2]; data not shown): comparable in vitro activity to compound 1
- inhibition of Ack1 autophosphorylation in cells [3]: potently inhibited Ack1 autophosphorylation in cells; also recorded: inhibits Ack1 in cells

- inhibition at 0.5 µM (IKK-2): 91%
- inhibition of catalytic activity of FLT3 (FLT3): partial inhibition
- inhibition of catalytic activity of JAK1/2 (JAK1/2): partial inhibition
- inhibition of catalytic activity of RET (RET): partial inhibition
- inhibition of catalytic activity of Tyk2 (Tyk2): partial inhibition
- inhibition at 0.5 µM (Ack1 [7]): 94%
Compound: NC(=O)Nc1sc(-c2ccc(F)cc2)cc1C(N)=O [Compound 3]

Compound: CN[C@@H]1C[C@H]2O[C@@](C)([C@@H]1OC)n1c3ccccc3c3c4c(c5c6ccccc6n2c5c31)C(=O)NC4 [staurosporine, reference compound]
- inhibition of Ack1 in the screen (Ack1 [7]): inhibited Ack1 in addition to many other kinases
